One data set addresses Carrot-1. Description: Binding constant of Carrot-1 and IV-39 by fluorescence titration. As to conditions: 20 nM Carrot-1 incubated with different concentrations of IV-39. As for the experimental part: In order to detect the binding constant of Carrot-1 and IV-39, 20 nM Carrot-1 was incubated with different concentrations of IV-39 and their fluorescence was determined.
The next data set concerns Carrot-1 RNA aptamer. The data set is described as follows: Properties of Carrot-1 RNA aptamer with different fluorophores (spectra, extinction coefficient, quantum yield, activation fold). Particulars: for fluorescence intensity: excited at 524±10 nm, emission 580 nm±10 nm, 5 μM Carrot-1 + 1 μM IV-39, or control 1 μM IV-39 alone. In kind it is biochemical. As for the experimental part: (§1) (5) Function detection of nucleic acid aptamers Carrot or Carrot mutant nucleic acid aptamer molecules were prepared according to common experimental method (I), 5 μM of nucleic acid aptamer molecules and 1 μM of fluorophore molecules were incubated in detection buffer (40 mM HEPES, pH 7.4, 125 mM KCl, 5 mM MgCl2, 5% DMSO), and Synergy Neo2 multifunctional microplate reader was used for detecting and obtaining the maximum excitation peak and the maximum emission peak of the fluorescence of the nucleic acid aptamer-fluorophore molecule complex. The Synergy Neo2 multifunctional microplate reader was used again for detecting the fluorescence intensity of the aptamer-fluorophore molecule complex under its maximum excitation and emission conditions. Control sample (1 μM of fluorophore molecules without nucleic acid aptamer) was measured under the same condition, and the ratio of fluorescence intensity was calculated. […] By using Synergy Neo2 multifunctional microplate reader, it was detected that the fluorescence intensity of the complex was 5720 when it was excited at 524±10 nm and emitted under the emission condition of 580 nm±10 nm, while fluorescence intensity of the control sample (1 μM of IV-39 fluorophore molecules) under the same detection condition was 20, so the activation multiple of Carrot-1 nuclear acid aptamer to IV-39 fluorophore molecule was 286.
In order to detect the spectral properties of the Carrot-IV-39 complex, Carrot-1 (SEQ ID NO: 2) RNA was prepared according to the commonly used experimental method (1). 1 μM IV-39 with 5 μM Carrot-1 was incubated.
Carrot-1 RNA aptamer was prepared according to the commonly used experimental methods (1), and was used to detect the properties of IV-39 analogues upon Carrot binding, including the fluorescence spectrum, extinction coefficient, quantum yield and fluorescence activation fold. From the data shown in the table, Carrot-1 still could activate the fluorescence of IV-39 analogues.

The nature of data set [1]: Fluorescence activation of IV-39 fluorophore by Carrot-1 and Carrot mutants (function detection of nucleic acid aptamers). In kind it is biochemical. Particulars: for Activation fold: 1 μM IV-39 incubated with 5 μM Carrot-1 mutant RNA. As for the experimental part:
as §1
In order to detect the fluorescence activation of IV-39 fluorophore by different Carrot mutant, the Carrot-1 sequence was mutated according to Table 1. The Carrot RNA containing different mutations were prepared according to the commonly used experimental method (1). 1 μM IV-39 was incubated with 5 μM Carrot-1 mutant RNA and their fluorescence activation folds were determined according to the commonly used experimental method (5). […] Several Carrot-1 mutants containing 2-5 mutations still retained strong fluorescence activation of IV-39 (>100 times) (Table 3). In summary, many Carrot-1 mutants containing single and multiple mutants still retain the ability to activate the fluorescence of IV-39 fluorophore.

For data set [2], the system named is tdMCP-NanoLuc-tdMCP fusion protein. As to conditions: 293T/17 cells, 1 μM IV-4, 20 μM Furimazine.
Source text: In order to use Carrot to detect RNA-protein interactions, the interaction between phage capsid protein MCP and its binding sequence MS2 RNA was used as an example. […] The cDNAs encoding tdMCP protein (the dimeric form of MCP, SEQ ID No: 32) and NanoLuc protein (SEQ ID No: 33) were synthesized. Primers P29 and P30, P33 and P34 were used to amplify tdMCP gene fragment, respectively. Primers P35 and P36 were used to amplify NanoLuc gene fragment. The obtained fragments were inserted into the HindIII and XhoI sites of pCDNA3.1 hygro(+) to generate pCDNA3.1 hygro(+)-tdMCP-NanoLuc-tdMCP according to the commonly used experimental method (4), the sequence of the fusion protein encoded by which is SEQ ID No:34.
After 24 h of transfection, 1 μM IV-4 fluorophore was added to label Carrot. Imaging was taken immediately after addition of 20 μM Furimazine to the medium.
Data set [3] can be described thus: Fluorescence activation of IV-39 by base-modified Carrot. In kind it is biochemical. As to conditions: control buffer. The protocol: as §1, with “286. […]” for “286.”
The subject of a further data set is 293T/17 cells. The data set is described as follows: RNA labeling in mammalian cells using tRNA-Carrot-2 and IV-39. In kind it is cell-based. An excerpt: In major imaging experiments of the examples, a Leica SP8 confocal laser microscope was used for photographing, HCXPL APO 63.0×1.47 oil lens and HyD detector were used, and various lasers, such as 405 nm, 457 nm, 476 nm, 488 nm, 497 nm, 514 nm nm, 561 nm and 633 nm, were used for imaging; complexes formed by each Carrot and dye molecules were imaged by laser close to the wavelength corresponding to the maximum excitation peak. For others, GFP used a 488 nm laser; Hoechst and DAPI fluorescence used a 405 nm laser; and Rhodamine used a 561 nm laser.
In order to use Carrot and IV-39 for RNA labeling in mammalian cells, the reported Pepper and Corn aptamer (binding to HBC599 and DFHO fluorophores, respectively) were used as the controls (Chen et al. Nature Biotechnology 2019. 37: 1287-1293; Song et al. Nature Chemical Biology 2017. 13: 1187-1194). The mammalian cell expression plasmids expressing the RNA aptamers were constructed. cDNAs encoding tRNA-Carrot-2 (SEQ ID No: 4), tRNA-Pepper (SEQ ID No: 22) and tRNA-Corn (SEQ ID No: 21) were synthesized and amplified using the primers P7 and P8, and the primers P9 and P10 were used to amplify pEGFP-N1 to remove the promoter and multiple cloning site regions. […] Fluorescence imaging was performed according to the commonly used experimental method (3).

The mark [4] stands for this setting: complex of 5 μM Carrot-1 and 1 μM IV-39.

Broadly, the Kd is the equilibrium constant for the complex coming apart.

As for `CN1C(=O)/C(=C/c2ccc(N(C)CCO)cc2)N=C1/C=C/c1ccccc1` [IV-39], at Carrot-1, binding was characterised by a dissociation constant (Kd) of 58 nM. The fluorescence intensity in the data set on Carrot-1 RNA aptamer amounted to 20.
For the molecule “Carrot-1: RNA aptamer with the sequence of SEQ ID NO: 1, General Formula Carrot structure N1AGAUUGUAAACAN14-N15-N16GACACUN23 (GGGAAGAUUGUAAACACGCCGAAAGGCGGACACUUCCC; chemistry not given here)”, in the data set with Carrot-1 RNA aptamer (setting [4]), the maximum emission peak is 580 nm and the maximum excitation peak is 524 nm. Also, the fluorescence intensity in the data set with Carrot-1 RNA aptamer is listed as 5720. Further, the Activation fold in data set [1] (multiple mutations) was determined as 286 fold. The Activation fold in data set [1] (single mutation) was determined as 286 fold. For the same molecule, the “activation multiple of aptamer to IV-39 fluorophore molecule” value in data set [1] (5 μM Carrot-1, 1 μM IV-39, ratio of fluorescence intensity to fluorophore alone) amounted to 286. For the same molecule, in data set [2], the “fluorescence of Carrot-IV-4 complex by luminescence energy transfer (BRET)” value is on record as “could not emit obvious orange-red fluorescence”.
On to “Carrot-3: base-modified Carrot, SEQ ID NO: 5, GGGAAGATTGTAAACACGCCGAAAGGCGGACACTTCCC containing deoxyribonucleotide bases (GGGAAGAUUGUAAACACGCCGAAAGGCGGACACUUCCC; some positions are deoxyribonucleotides, which ones are not given here in text)”, for which, in data set [3], the “activation of the fluorescence of IV-39 fluorophore” value was “significantly activate”.
Turning to “Carrot-4: base-modified Carrot, SEQ ID NO: 6, GGGAAGATTGTAAACACGCCGAAAGGCGGACACTTCCC containing 2′-F modification (GGGAAGAUUGUAAACACGCCGAAAGGCGGACACUUCCC; some positions carry 2'-F, which ones are not given here in text)”, the “activation of the fluorescence of IV-39 fluorophore” value in data set [3] was “significantly activate”.

B1: tRNA-Carrot-IV-39: complex of tRNA-Carrot-2 (SEQ ID No: 4) RNA aptamer and IV-39 fluorophore (nucleic acid)
chain: GCCCGGAUAGCUCAGUCGGUAGAGCAGCGGCCGGAAGAUUGUAAACACGCCGAAAGGCGGACACUUCCGGCCGCGGGUCCAGGGUUCAAGUCCCUGUUCGGGCGCCA
modifications: RNA aptamer in complex with IV-39 fluorophore, further chemistry not given here
In the case of B1, the “fluorescence intensity compared with tRNA-Pepper-HBC599 and tRNA-Corn-DFHO complexes” value in the data set on 293T/17 cells (0.5 μM IV-39, 0.5 μM HBC599, 10 μM DFHO) is “markedly higher”. Further, the fluorescence in cells result with 293T/17 cells (0.5 μM IV-39, 24 h after transfection, with or without 20 mM Mg2+) is “bright orange fluorescence”.

These data come from patent publication US20230133910A1, “NEW METHOD FOR DETECTING AND QUANTIFYING RNA” (EAST CHINA UNIVERSITY OF SCIENCE AND TECHNOLOGY, priority 2020, published 2023).
